Results taken from patent US4861772A, “Method and composition to treat panic syndrome” (Hoffmann-La Roche Inc., priority 1988, dated 1989).

Assays:
[1] = system: patients with panic syndrome; assay: Double-blind, parallel group clinical study in patients with panic syndrome (end point analysis); assay type: in vivo, human
Procedure: The results of a clinical study will be referred to as an example of the use and the effect of discontinuous therapy of panic attacks by means of compound A.
(§1) The clinical study is a double-blind, parallel group study in which in each case 12 patients with panic syndrome were treated either with compound A, that is, tablets containing 0.5 mg of active substance or with a corresponding placebo. The course of the trial was the following. After examining the inclusion and exclusion criteria and recording the basic data, the patients each received 20 tablets with instructions to take one tablet at the approach or beginning of the next panic attack. The medicaments previously used had been withdrawn before the commencement of the study. In the case of a satisfactory outcome of treatment the initial dosage was to be used a once more. Then, for the second investigation, the investigator was to be consulted. In the case of an unsatisfactory outcome of therapy, the dosage in the case of the second panic attack was to be increased to two tablets, which dosage was to be repeated in the case of success and, in the case of failure, was to be increased to three tablets. […] Patients with ineffective medication were to be discharged from the trial. Patients in whom an effective dosage had been found would use that dose in the next twelve panic states. In cases in which withdrawal phenomena of the preceding treatment played a role, the twelve treatments of the main treatment phase can be extended with an additional twelve dosages in a further phase, additional phase.
(§2) During the treatment, the patients were required to carry a treatment day book. On the basis of the remarks contained therein, the statements of the patients as well as specific observations, the results of the trial at the end of the titration phase (investigation 2), at the end of the main treatment phase (investigation 3) and, if desired, at the end of the additional phase (investigation 4) were introduced into the trial data by the investigator. The following psychiatric scales were filled out as standardized comparative investigations at all points in time of the trial: anxiety scale according to Covi, depression scale according to Raskin, self-evaluated anxiety scale (SAS) and self-evaluated depression scale (SDS) according to Zung, as well as the withdrawal symptom scale (WSS) according to Merz & Ballmer.
In each case, 12 patients were treated with compound A or placebo. In the group treated with compound A, 7 were male and 5 female with an average age of 33±5.4 years, of which--according to the DSM-III classification--2 suffered from panic syndrome without agoraphobia and 10 suffered from panic syndrome with agoraphobia. The diagnosis of a major depression was also established in 6 cases.
The average duration of the disorder amounted to 98±83 months in the group treated with compound A and to 143±164 months in the placebo group. The weekly frequency of panic states was 5.6±3.2 in the group treated with compound A and 7.6±5.6 in the placebo group. In this calculation, a runaway in the placebo group which fell outside the average value and the five-fold standard deviation was not taken into consideration. The average duration of the panic attacks was 27±17 minutes in the group treated with compound A and 25±16 minutes in the placebo group. Nine (9) patients treated with compound A and 10 placebo patients were able to predict attacks with an average prediction time of 11±12 minutes in the group treated with compound A and 10±7 minutes in the placebo group.
Because of the different lengths of the total treatment, average duration 43±27 days in the group treated with compound A and 28±32 days in the placebo group and because of the unequal distribution of the exclusions and drop-outs, the following results are presented in the form of an end point analysis: […]

[2] = Plasma level after peroral intake of compound A in tablet form; assay type: in vivo; conditions: human, po, 1 mg perorally in tablet form
Procedure: (§3) After 1 mg of compound A has been taken perorally in tablet form a maximal active substance level is already reached after 45 minutes. Clinically relevant effects, that is, effects noticed by patients, generally occur already after 10 minutes.

patients = assay: Clinically relevant effects noticed by patients (onset); assay type: in vivo, human; conditions: 1 mg perorally in tablet form; generally
Procedure: as §3

[3] = system: patients with panic syndrome; assay: Side effects in the clinical study in patients with panic syndrome; assay type: in vivo, human
Procedure: as §1, §2
The following side effects were found:
^3 MRA = "Mean Risk per Administration", i.e. the risk at which the
particular side effect is incurred by a single intake of the medicament.
From the list of side effects, it is evident that the […] has less benzodiazepine-typical side effects of the sedative and motor type.

CC(C)(C)OC(=O)c1ncn2c1[C@@H]1CCCN1C(=O)c1c(Br)cccc1-2 [Compound A, t-butyl (S)-8-bromo-11,12,13,13a-tetrahydro-9-oxo-9H-imidazo[1,5-a]pyrrolo[2,1-c][1,4]benzodiazepine-1-carboxylate]
antipanic activity ([1]; conclusion from the clinical comparison): specific antipanic activity
Δ frequency of attack per week (n) ([1]; n = 12, p < 0.05 vs placebo): -2.6 ± 3.3 n
Average treatment period ([1]; n = 12, p < 0.05 vs placebo (Mann-Whitney U test)): 43 ± 27 days
Δ withdrawal symptom scale (WSS) ([1]; n.s. vs placebo): -3.9 ± 6.8
Δ Covi anxiety scale (outside evaluation) ([1]; p < 0.001 vs placebo): 3.3 ± 3.2
Δ Raskin depression scale (outside evaluation) ([1]; p < 0.001 vs placebo): 1.9 ± 3.2
Δ Zung anxiety scale (self evaluation) ([1]; p < 0.001 vs placebo): 6.4 ± 8.5
Δ Zung depression scale (self evaluation) ([1]; p < 0.001 vs placebo): 4.5 ± 9.0
Average improvement in phobias ([1]; scale as initial intensity, p < 0.001 vs placebo): 2.2 ± 1.0
Reduction in the intensity of attack ([1]; score 4 = complete, 3 = strong, 2 = weak, 1 = no effect, p < 0.01 vs placebo): 3.5 ± 0.9
Average number of tablets at the end of treatment ([1]; tablets of 0.5 mg, n = 12, p < 0.001 vs placebo): 1.4 ± 0.9
secondary panic symptoms in untreated intervals between successive panic attacks ([1]; vs placebo): reduced significantly better than by placebo
Tmax ([2]; read-out: time to maximal active substance level (converted)): 0.75 h
half-life ([2]; read-out: β-half life (converted)): 2.25 h
time to clinically relevant effects (noticed by patients) (patients): 10 min
quality of the observed side effects ([3]; CGI evaluation, in total): only of minimal quality
tolerance ([3]; all together): satisfactory tolerance
Coarse muscular relaxation, No. Pat. ([3]; number of patients, of 12): 1
Dopiness, No. Pat. ([3]; number of patients, of 12): 5
Drowsiness, No. Pat. ([3]; number of patients, of 12): 9
Dry mouth, No. Pat. ([3]; number of patients, of 12): 1
Headache, No. Pat. ([3]; number of patients, of 12): 1
Nausea, No. Pat. ([3]; number of patients, of 12): 1
Slurred speech/"heavy tongue", No. Pat. ([3]; number of patients, of 12): 2
Unsteadiness when walking or standing, No. Pat. ([3]; number of patients, of 12): 4
Coarse muscular relaxation, No. Reg. ([3]; number registered): 2
Dopiness, No. Reg. ([3]; number registered): 60
Drowsiness, No. Reg. ([3]; number registered): 45
Dry mouth, No. Reg. ([3]; number registered): 2
Headache, No. Reg. ([3]; number registered): 2
Nausea, No. Reg. ([3]; number registered): 9
Slurred speech/"heavy tongue", No. Reg. ([3]; number registered): 5
Unsteadiness when walking or standing, No. Reg. ([3]; number registered): 13
duration of side effects as part of the total treatment period ([3]; on average): 0.96±1.01%
total duration of side effects ([3]; on average): 7.8 ± 7.6 h
Coarse muscular relaxation, MRA (Mean Risk per Administration) ([3]; risk per single intake): 0.7%
Dopiness, MRA (Mean Risk per Administration) ([3]; risk per single intake): 21.8%
Drowsiness, MRA (Mean Risk per Administration) ([3]; risk per single intake): 16.4%
Dry mouth, MRA (Mean Risk per Administration) ([3]; risk per single intake): 0.7%
Headache, MRA (Mean Risk per Administration) ([3]; risk per single intake): 0.7%
Nausea, MRA (Mean Risk per Administration) ([3]; risk per single intake): 3.3%
Slurred speech/"heavy tongue", MRA (Mean Risk per Administration) ([3]; risk per single intake): 1.8%
Unsteadiness when walking or standing, MRA (Mean Risk per Administration) ([3]; risk per single intake): 4.7%
